This note sets out measurements from patent publication US20100152188A1, “Novel Heterocyclic Compounds” (priority 2005, published 2010).

For one experiment, the system named is NCIH460. The experiment is described as follows: Anti-cancer screen (MTT), NCIH460. The class given is cell-based. The settings on record: Homo sapiens, NCI-H460, 48 hours with compound, tested at 0.01-100 µM. As for the experimental part: (§1) Experimental drugs are screened for anti-cancer activity in three cell lines for their GI50, TGI and LC50 values (using five concentrations for each compound). The cell lines are maintained in DMEM containing 10% fetal bovine serum. 96 well micro titer plates are inoculated with cells in 100 µL for 24 hours at 37° C., 5% CO2, 95% air and 100% relative humidity. 5000 HCT 116 cells/well, 5000 NCIH 460 cells/well and 5000 U251 cells/well are plated. A separate plate with these cell lines is also inoculated to determine cell viability before the addition of the compounds (T0).
(§2) Following 24-hour incubation, experimental drugs are added to the 96 well plates. Each plate contains one of the above cell lines and the following in triplicate: five different concentrations (0.01, 0.1, 1, 10 and 100 µM) of four different compounds, appropriate dilutions of a cytotoxic standard and control (untreated) wells. Compounds are dissolved in DMSO to make 20 mM stock solutions on the day of drug addition and frozen at −20° C. Serial dilutions of these 20 mM stock solutions are made in complete growth medium such that 100 µL of these drug solutions in medium, of final concentrations equaling 0.01, 0.1, 1, 10 and 100 µM can be added to the cells in triplicate. Standard drugs whose anti-cancer activity has been well documented and which are regularly used are doxorubicin and SAHA.
(§3) For T0 measurement, 24 hours after seeding the cells, 10 µL of 3-(4,5-Dimethyl-2-thiazolyl)-2,5-diphenyl-2H-tetrazolium (MTT) solution per well is added and incubation carried out for 3 hours at 37° C., 5% CO2, 95% air and 100% relative humidity, protected from light. Cells incubated with compounds for 48 hours are treated similarly except with the addition of 20 µl MTT solution per well and a subsequent incubation under the same conditions. After 3 hours of MTT incubation, well contents are aspirated carefully followed by addition of 150 µL DMSO per well. Plates are agitated to ensure solution of the formazan crystals in DMSO and absorbance read at 570 nm.
(§4) Percent growth is calculated for each compound's concentration relative to the control and zero measurement wells (T0; viability right before compound addition). If a test well's O.D. value is greater than the T0 measurement for that cell line
(§5) %Growth=(test−zero)/(control−zero)×100
(§6) If a test well's O.D. value is lower than the T0 measurement for that cell line, then,
(§7) %Growth=(test−zero)/zero×100

A further experiment has as its system HCT116. Nature of the experiment: Anti-cancer screen (MTT), HCT116. The class given is cell-based. The settings on record: Homo sapiens, HCT-116, 48 hours with compound, tested at 0.01-100 µM; for CC50: read-out: HCT116 LC50. As to the method:
as §1, §2, §3, §4, §5, §6, §7

The subject of a further experiment is MDAMB-231/U 251. Nature of the experiment: Anti-cancer screen (MTT), MDAMB-231/U 251. The class given is cell-based. Conditions: for CC50: read-out: MDAMB-231/U 251 LC50. As to the method: as §1, §2, §3, §4, §5, §6, §7
Experiment [1] concerns NCIH460, HCT116, MDAMB-231/U 251. Nature of the experiment: Anti-cancer screen, mean GI50 over the cell lines. The class given is cell-based. Conditions: in µM. As to the method: as §1, §2, §3, §4
In a further experiment the test system is HDAC. The experiment is described as follows: HDAC inhibition. The class given is biochemical. Conditions: for HDAC Inhibition 1 μM: compound at 1 μM; for HDAC Inhibition 10 μM: compound at 10 μM.
[2] abbreviates: 48 hours with compound, MTT, tested at 0.01-100 µM.

Where two headings read alike, the source gives them in different places.

For the compound `O=C(Cc1csc(NC(=O)OCc2cccnc2)n1)NO` [Example 1, pyridin-3-ylmethyl{4-[2-(hydroxyamino)-2-oxoethyl]-1,3-thiazol-2-yl}carbamate], in the experiment on NCIH460, the GI50 was found to be 0.01 µM, the IC (TGI) stood at 0.5 µM and the LC50 was more than 100 µM. Further, in the experiment on HCT116, the GI50 is 0.25 µM, the IC (TGI) was 4 µM and the LC50 (concentration giving 50% net cell kill relative to T0) was more than 100 µM. Moreover, the CC50 with MDAMB-231/U 251 (48 h) is more than 100 µM. In the experiment on MDAMB-231/U 251 (setting [2]), the GI50 stood at 1 µM and the IC (TGI) was more than 100 µM. The “Mean GI50” value in experiment [1] is recorded as 0.4. Further, in the experiment on HDAC, the “HDAC Inhibition 1 μM” value was determined as 1.3 and the “HDAC Inhibition 10 μM” value was 31.5.

`O=C(Cc1csc(NC(=O)OCc2cccs2)n1)NO` [Example 2, 2-Thienylmethyl{4-[2-(hydroxyamino)-2-oxoethyl]-1,3-thiazol-2-yl}carbamate]: in the experiment with NCIH460, the GI50 was more than 100 µM, the IC (TGI) was more than 100 µM and the LC50 is more than 100 µM. Also, in the experiment with HCT116, the GI50 was more than 100 µM, the IC (TGI) was more than 100 µM and the LC50 (concentration giving 50% net cell kill relative to T0) was more than 100 µM. Besides, the CC50 in the experiment with MDAMB-231/U 251 (48 h) was more than 100 µM. Moreover, in the experiment with MDAMB-231/U 251 (setting [2]), the concentration for 50% growth inhibition (GI50) is more than 100 µM and the IC (TGI) is more than 100 µM. The “Mean GI50” value in experiment [1] was more than 100. In addition, in the experiment with HDAC, the “HDAC Inhibition 1 μM” value came to 0.8 and the “HDAC Inhibition 10 μM” value came to 22.42.

Consider `O=C(Cc1csc(NC(=O)OCc2ccsc2)n1)NO` [Example 3, 3-Thienylmethyl{4-[2-(hydroxyamino)-2-oxoethyl]-1,3-thiazol-2-yl}carbamate], for which, in the experiment on NCIH460, the GI50 worked out at 30 µM, the IC (TGI) was more than 100 µM and the LC50 was more than 100 µM. Besides, in the experiment on HCT116, the GI50 is more than 100 µM, the IC (TGI) was more than 100 µM and the LC50 (concentration giving 50% net cell kill relative to T0) is more than 100 µM. Besides, the CC50 in the experiment with MDAMB-231/U 251 (48 h) is more than 100 µM. Also, in the experiment on MDAMB-231/U 251 (setting [2]), the GI50 stood at 32 µM and the IC (TGI) is more than 100 µM. In experiment [1], the “Mean GI50” value came out at 31. Moreover, in the experiment on HDAC, the “HDAC Inhibition 1 μM” value is on record as −4.03 and the “HDAC Inhibition 10 μM” value was 22.89.

As for `O=C(Cc1csc(NC(=O)OCc2ccncc2)n1)NO` [Example 4, Pyridin-4-ylmethyl{4-[2-(hydroxyamino)-2-oxoethyl]-1,3-thiazol-2-4.yl}carbamate], in the experiment on NCIH460, the GI50 is 20 µM, the IC (TGI) is more than 100 µM and the LC50 is more than 100 µM. Also, in the experiment with HCT116, the GI50 is more than 100 µM, the IC (TGI) is more than 100 µM and the LC50 (concentration giving 50% net cell kill relative to T0) is more than 100 µM. Also, in the experiment with MDAMB-231/U 251 (48 h), the CC50 was more than 100 µM. In addition, in the experiment with MDAMB-231/U 251 (setting [2]), the GI50 is 6 µM and the IC (TGI) was more than 100 µM. Further, the “Mean GI50” value in experiment [1] worked out at 13. Besides, in the experiment with HDAC, the “HDAC Inhibition 1 μM” value is 5.6 and the “HDAC Inhibition 10 μM” value stood at 38.13.

Turning to `O=C(Cc1csc(NC(=O)OCC2COc3ccccc3O2)n1)NO` (stereo not drawn) [Example 5, 2,3-Dihydro-1,4-benzodioxin-2-ylmethyl{4-[2-(hydroxyamino)-2-oxoethyl]1,3-thiazol-2-yl}carbamate], in the experiment with NCIH460, the GI50 was found to be 18 µM, the IC (TGI) turned out to be 76 µM and the LC50 was more than 100 µM. In the experiment on HCT116, the GI50 turned out to be 40 µM, the IC (TGI) is 80 µM and the LC50 (concentration giving 50% net cell kill relative to T0) is more than 100 µM. Moreover, in the experiment on MDAMB-231/U 251 (48 h), the CC50 is more than 100 µM. Also, in the experiment on MDAMB-231/U 251 (setting [2]), the GI50 is 6 µM and the IC (TGI) amounted to 78 µM. The “Mean GI50” value in experiment [1] was found to be 21.3. Also, in the experiment with HDAC, the “HDAC Inhibition 1 μM” value is recorded as 0.65 and the “HDAC Inhibition 10 μM” value was determined as 29.29.

On to `O=C(Cc1csc(NC(=O)OCc2ccc(Br)s2)n1)NO` [Example 6, (5-Bromo-2-thienyl)methyl{4-[2-(hydroxyamino)-2-oxoethyl]-1,3-thiazol-2-yl}carbamate], for which, in the experiment on NCIH460, the GI50 stood at 2 µM, the IC (TGI) is 80 µM and the LC50 is more than 100 µM. In the experiment on HCT116, the GI50 amounted to 65 µM, the IC (TGI) is more than 100 µM and the CC50 was more than 100 µM. In addition, in the experiment on MDAMB-231/U 251 (setting [2]), the concentration for 50% growth inhibition (GI50) was 5 µM, the IC (TGI) is 82 µM and the CC50 is more than 100 µM. In addition, the “Mean GI50” value in experiment [1] was determined as 24. Further, in the experiment on HDAC, the “HDAC Inhibition 1 μM” value was determined as 8.8 and the “HDAC Inhibition 10 μM” value stood at 47.27.

With `O=C(Cc1csc(NC(=O)OCc2cc(Br)cs2)n1)NO` [Example 7, (4-Bromo-2-thienyl)methyl{4-[2-(hydroxyamino)-2-oxoethyl]-1,3-thiazol-2-yl}carbamate], in the experiment with NCIH460, the 50% growth inhibitory concentration (GI50) worked out at 10 µM, the IC (TGI) came to 70 µM and the LC50 is more than 100 µM. In the experiment on HCT116, the GI50 came out at 25 µM, the IC (TGI) turned out to be 80 µM and the CC50 was more than 100 µM. In the experiment on MDAMB-231/U 251 (setting [2]), the 50% growth inhibitory concentration (GI50) stood at 15 µM, the IC (TGI) was 74 µM and the CC50 was more than 100 µM. Further, in experiment [1], the “Mean GI50” value was determined as 16.7. Moreover, in the experiment on HDAC, the “HDAC Inhibition 1 μM” value was found to be 7.07 and the “HDAC Inhibition 10 μM” value worked out at 46.41.

Take `O=C(NCc1ccc(C(=O)Nc2ncc([N+](=O)[O-])s2)cc1)OCc1cccs1` [Example 69, 2-thienylmethyl(4-{[(5-nitro-1,3-thiazol-2yl)amino]carbonyl}benzyl)carbamate]: the “Mean GI50” value in experiment [1] was found to be 40.33. Also, in the experiment on HDAC, the “HDAC Inhibition 1 μM” value is 13.14 and the “HDAC Inhibition 10 μM” value is listed as 12.38.

In the case of `O=C(NCc1ccc(C(=O)NOCc2ccccc2)cc1)OCc1cccs1` [Example 73, 2-Thienylmethyl(4-{[(benzyloxy)amino]carbonyl}benzyl)carbamate], in experiment [1], the “Mean GI50” value is on record as more than 100. Further, in the experiment with HDAC, the “HDAC Inhibition 1 μM” value is on record as 6.60 and the “HDAC Inhibition 10 μM” value is recorded as 12.42.

As to `COC(=O)ON(C)C(=O)c1ccc(CNC(=O)OCc2cccs2)cc1` [Example 85, 2-Thienylmethyl[4-({[(methoxycarbonyl)oxy](methyl)amino}carbonyl)benzyl]carbamate], in experiment [1], the “Mean GI50” value is 10.67. In addition, in the experiment with HDAC, the “HDAC Inhibition 1 μM” value turned out to be 3.18 and the “HDAC Inhibition 10 μM” value turned out to be 7.89.

`COC(=O)N(OCc1ccccc1)C(=O)c1ccc(CNC(=O)OCc2cccs2)cc1` [Example 86, 2-Thienylmethyl[4-({(N-benzyloxy)(N-methoxycarbonyl)amino}carbonyl)benzyl]carbamate]: in experiment [1], the “Mean GI50” value is reported as more than 100. Besides, in the experiment on HDAC, the “HDAC Inhibition 1 μM” value is 5.98 and the “HDAC Inhibition 10 μM” value was −10.22.

`O=C(CCCCCNC(=O)Cc1csc(NC(=O)OCc2ccncc2)n1)NO` [Example 98, Pyridin-4-ylmethyl[4-(2-{[6-(hydroxyamino)-6-oxohexyl]amino}-2-oxoethyl)-1,3-thiazol-2-yl]carbamate]: the “Mean GI50” value in experiment [1] is more than 100. In addition, in the experiment on HDAC, the “HDAC Inhibition 1 μM” value came out at 94.01 and the “HDAC Inhibition 10 μM” value worked out at 129.59.

For `N#Cc1ccc(NC(=O)Nc2cccc(NC(=O)c3ccc(CNC(=O)OCc4cccs4)cc3)c2)cc1` [Example 105, 2-Thienylmethyl[4-({[3-({[(4-cyanophenyl)amino]carbonyl}amino)phenyl]amino}carbonyl)benzyl]carbamate], the “Mean GI50” value in experiment [1] is listed as 6.73. In the experiment with HDAC, the “HDAC Inhibition 1 μM” value was 11.02 and the “HDAC Inhibition 10 μM” value was determined as 12.74.
